Source: US20250282794A1 (CURADEV PHARMA LTD, priority 2022, published 2025)

These molecules were tested against recombinant full length HPK-1 enzyme (Homo sapiens (Human), UniProt Q92918) (assay: HPK-1 biochemical enzyme assay (ADP-Glo kinase inhibition)). Details: recombinant full length HPK-1 6.8 nM, 10 μM ATP, 12.5 μM MBP, 30 mins at 25° C.
Summary of the method: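 ADP-Glo readout of ADP formed after a 30 min, 25° C. reaction of 6.8 nM full-length HPK-1 with swine myelin basic protein (12.5 μM) and ATP (10 μM) in Tris pH 7.4 buffer with MgCl2, DTT and BSA. Ten compound concentrations tested; percent inhibition set against vehicle (0%) and no-enzyme (100%) controls gave IC50.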

Sequence of recombinant full length HPK-1 enzyme (Q92918 whole entry, species assumed): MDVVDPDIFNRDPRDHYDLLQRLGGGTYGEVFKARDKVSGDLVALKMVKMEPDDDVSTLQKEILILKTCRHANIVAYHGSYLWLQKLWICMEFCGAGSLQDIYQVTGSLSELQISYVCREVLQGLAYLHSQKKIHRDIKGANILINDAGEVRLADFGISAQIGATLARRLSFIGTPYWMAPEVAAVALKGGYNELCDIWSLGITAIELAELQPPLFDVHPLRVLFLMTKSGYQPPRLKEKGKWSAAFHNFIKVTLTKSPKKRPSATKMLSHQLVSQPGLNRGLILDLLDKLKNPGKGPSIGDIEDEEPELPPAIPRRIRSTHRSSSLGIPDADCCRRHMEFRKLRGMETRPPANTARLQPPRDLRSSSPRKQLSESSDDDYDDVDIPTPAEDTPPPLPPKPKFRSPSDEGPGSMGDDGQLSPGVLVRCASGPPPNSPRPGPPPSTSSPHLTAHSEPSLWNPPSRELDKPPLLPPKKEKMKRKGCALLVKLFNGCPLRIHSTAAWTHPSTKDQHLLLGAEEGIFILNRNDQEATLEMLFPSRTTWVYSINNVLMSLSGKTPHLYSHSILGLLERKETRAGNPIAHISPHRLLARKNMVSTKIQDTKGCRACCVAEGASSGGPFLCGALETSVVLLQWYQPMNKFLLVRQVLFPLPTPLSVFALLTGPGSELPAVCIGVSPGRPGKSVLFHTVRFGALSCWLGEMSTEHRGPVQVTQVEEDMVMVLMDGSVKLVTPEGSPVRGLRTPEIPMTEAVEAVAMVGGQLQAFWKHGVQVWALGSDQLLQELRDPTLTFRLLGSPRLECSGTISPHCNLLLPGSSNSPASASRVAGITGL

Row | Compound | IC50 [nM]
1 | Cc1c(Nc2cc[nH]c(=O)c2C(=O)Nc2ccc(N3CCN(Cc4ccnn4C)CC3)cc2)cnc2c1NCCO2 [Example 308, N-(4-(4-((1-methyl-1H-pyrazol-5-yl)methyl)piperazin-1-yl)phenyl)-4-((8-methyl-2,3-dihydro-1H-pyrido[2,3-b][1,4]oxazin-7-yl)amino)-2-oxo-1,2-dihydropyridine-3-carboxamide] | ≤ 10
2 | Cc1c(Nc2cc[nH]c(=O)c2C(=O)Nc2ccc(N3CCN(C(=O)C4CC4(C)C)CC3)cc2)cnc2c1NCCO2 (stereo not drawn) [Example 309, N-(4-(4-(2,2-dimethylcyclopropane-1-carbonyl)piperazin-1-yl)phenyl)-4-((8-methyl-2,3-dihydro-1H-pyrido[2,3-b][1,4]oxazin-7-yl)amino)-2-oxo-1,2-dihydropyridine-3-carboxamide] | ≤ 10
3 | COC(C)(C)CN1CCN(c2ccc(NC(=O)c3c(Nc4cnc5c(c4C)NCCO5)cc[nH]c3=O)cc2)CC1 [Example 310, N-(4-(4-(2-methoxy-2-methylpropyl)piperazin-1-yl)phenyl)-4-((8-methyl-2,3-dihydro-1H-pyrido[2,3-b][1,4]oxazin-7-yl)amino)-2-oxo-1,2-dihydropyridine-3-carboxamide] | ≤ 10
4 | CCC(=O)N1CCN(c2ccc(NC(=O)c3c(Nc4cnc5c(c4C)NCC(C)O5)cc[nH]c3=O)cc2Cl)CC1 (stereo not drawn) [Example 313, N-(3-chloro-4-(4-propionylpiperazin-1-yl)phenyl)-4-((3,8-dimethyl-2,3-dihydro-1H-pyrido[2,3-b][1,4]oxazin-7-yl)amino)-2-oxo-1,2-dihydropyridine-3-carboxamide] | 10 to 100
5 | Cc1c(Nc2cc[nH]c(=O)c2C(=O)Nc2ccc(N3CCN(C(=O)c4ccnn4C)CC3)cc2)cnc2c1NCCO2 [Example 316, N-(4-(4-(1-methyl-1H-pyrazole-5-carbonyl)piperazin-1-yl)phenyl)-4-((8-methyl-2,3-dihydro-1H-pyrido[2,3-b][1,4]oxazin-7-yl)amino)-2-oxo-1,2-dihydropyridine-3-carboxamide] | 10 to 100
6 | Cc1c(Nc2cc[nH]c(=O)c2C(=O)Nc2ccc(N3CCN(C(=O)C4CC(F)(F)C4)CC3)cc2)cnc2c1NCCO2 [Example 318, N-(4-(4-(3,3-difluorocyclobutane-1-carbonyl)piperazin-1-yl)phenyl)-4-((8-methyl-2,3-dihydro-1H-pyrido[2,3-b][1,4]oxazin-7-yl)amino)-2-oxo-1,2-dihydropyridine-3-carboxamide] | ≤ 10
7 | Cc1c(Nc2cc[nH]c(=O)c2C(=O)Nc2ccc(N3CCN(C(=O)c4ccn(C)n4)CC3)cc2)cnc2c1NCCO2 [Example 322, N-(4-(4-(1-methyl-1H-pyrazole-3-carbonyl)piperazin-1-yl)phenyl)-4-((8-methyl-2,3-dihydro-1H-pyrido[2,3-b][1,4]oxazin-7-yl)amino)-2-oxo-1,2-dihydropyridine-3-carboxamide] | 10 to 100
8 | Cc1c(Nc2cc[nH]c(=O)c2C(=O)Nc2ccc(N3CCN4CCOC[C@H]4C3)cc2)cnc2c1NCCO2 [Example 323, (R)-N-(4-(hexahydropyrazino[2,1-c][1,4]oxazin-8(1H)-yl)phenyl)-4-((8-methyl-2,3-dihydro-1H-pyrido[2,3-b][1,4]oxazin-7-yl)amino)-2-oxo-1,2-dihydropyridine-3-carboxamide] | 10 to 100
9 | Cc1c(Nc2cc[nH]c(=O)c2C(=O)Nc2ccc(N3CCC(N4CCN(C(C)C)CC4)CC3)c(F)c2)cnc2c1NCC(C)O2 (stereo not drawn) [Example 326, 4-((3,8-dimethyl-2,3-dihydro-1H-pyrido[2,3-b][1,4]oxazin-7-yl)amino)-N-(3-fluoro-4-(4-(4-isopropylpiperazin-1-yl)piperidin-1-yl)phenyl)-2-oxo-1,2-dihydropyridine-3-carboxamide] | ≤ 10
10 | Cc1c(Nc2cc[nH]c(=O)c2C(=O)Nc2ccc(N3CCN4CCOC[C@@H]4C3)cc2)cnc2c1NCCO2 [Example 327, (S)-N-(4-(hexahydropyrazino[2,1-c][1,4]oxazin-8(1H)-yl)phenyl)-4-((8-methyl-2,3-dihydro-1H-pyrido[2,3-b][1,4]oxazin-7-yl)amino)-2-oxo-1,2-dihydropyridine-3-carboxamide] | ≤ 10
11 | Cc1c(Nc2cc[nH]c(=O)c2C(=O)Nc2ccc(N3CCN4CCC[C@H]4C3)cc2)cnc2c1NCCO2 [Example 328, (S)-N-(4-(hexahydropyrrolo[1,2-a]pyrazin-2(1H)-yl)phenyl)-4-((8-methyl-2,3-dihydro-1H-pyrido[2,3-b][1,4]oxazin-7-yl)amino)-2-oxo-1,2-dihydropyridine-3-carboxamide] | ≤ 10
12 | Cc1c(Nc2cc[nH]c(=O)c2C(=O)Nc2ccc(N3CCN4CCC[C@@H]4C3)cc2)cnc2c1NCCO2 [Example 329, (R)-N-(4-(hexahydropyrrolo[1,2-a]pyrazin-2(1H)-yl)phenyl)-4-((8-methyl-2,3-dihydro-1H-pyrido[2,3-b][1,4]oxazin-7-yl)amino)-2-oxo-1,2-dihydropyridine-3-carboxamide] | ≤ 10
13 | Cc1c(Nc2cc[nH]c(=O)c2C(=O)Nc2ccc(C3CCCCC3)cc2)cnc2c1NCCO2 [Example 330, N-(4-cyclohexylphenyl)-4-((8-methyl-2,3-dihydro-1H-pyrido[2,3-b][1,4]oxazin-7-yl)amino)-2-oxo-1,2-dihydropyridine-3-carboxamide] | 100 to 1000

The next lines start with the values.

Row | IC50 [nM] | Compound
14 | ≤ 10 | Cc1c(Nc2cc[nH]c(=O)c2C(=O)Nc2ccc(N3CCN(C(=O)C4(C)CCC4)CC3)cc2)cnc2c1NCCO2 [Example 306, 4-((8-methyl-2,3-dihydro-1H-pyrido[2,3-b][1,4]oxazin-7-yl)amino)-N-(4-(4-(1-methylcyclobutane-1-carbonyl)piperazin-1-yl)phenyl)-2-oxo-1,2-dihydropyridine-3-carboxamide]
15 | ≤ 10 | Cc1c(Nc2cc[nH]c(=O)c2C(=O)Nc2ccc(N3CCN(C(=O)C4CC(C)C4)CC3)cc2)cnc2c1NCCO2 (stereo not drawn) [Example 307, 4-((8-methyl-2,3-dihydro-1H-pyrido[2,3-b][1,4]oxazin-7-yl)amino)-N-(4-(4-(3-methylcyclobutane-1-carbonyl)piperazin-1-yl)phenyl)-2-oxo-1,2-dihydropyridine-3-carboxamide]
16 | ≤ 10 | Cc1c(Nc2cc[nH]c(=O)c2C(=O)Nc2ccc(N3CCN(C(=O)CC4CC4)CC3)cc2)cnc2c1NCCO2 [Example 312, N-(4-(4-(2-cyclopropylacetyl)piperazin-1-yl)phenyl)-4-((8-methyl-2,3-dihydro-1H-pyrido[2,3-b][1,4]oxazin-7-yl)amino)-2-oxo-1,2-dihydropyridine-3-carboxamide]
17 | ≤ 10 | Cc1c(Nc2cc[nH]c(=O)c2C(=O)Nc2ccc(N3CCN(C(=O)C(C)C)CC3)cc2)cnc2c1NCCO2 [Example 315, N-(4-(4-Isobutyrylpiperazin-1-yl)phenyl)-4-((8-methyl-2,3-dihydro-1H-pyrido[2,3-b][1,4]oxazin-7-yl)amino)-2-oxo-1,2-dihydropyridine-3-carboxamide]
18 | ≤ 10 | Cc1c(Nc2cc[nH]c(=O)c2C(=O)Nc2ccc(N3CCN(C(=O)N4CC(C)(C)C4)CC3)cc2)cnc2c1NCCO2 [Example 317, N-(4-(4-(3,3-dimethylazetidine-1-carbonyl)piperazin-1-yl)phenyl)-4-((8-methyl-2,3-dihydro-1H-pyrido[2,3-b][1,4]oxazin-7-yl)amino)-2-oxo-1,2-dihydropyridine-3-carboxamide]
19 | ≤ 10 | Cc1c(Nc2cc[nH]c(=O)c2C(=O)Nc2ccc(N3CCN(C(=O)N4CC(F)(F)C4)CC3)cc2)cnc2c1NCCO2 [Example 319, N-(4-(4-(3,3-difluoroazetidine-1-carbonyl)piperazin-1-yl)phenyl)-4-((8-methyl-2,3-dihydro-1H-pyrido[2,3-b][1,4]oxazin-7-yl)amino)-2-oxo-1,2-dihydropyridine-3-carboxamide]
20 | ≤ 10 | Cc1c(Nc2cc[nH]c(=O)c2C(=O)Nc2ccc(N3CCN(C(=O)N4CC5(CCC5)C4)CC3)cc2)cnc2c1NCCO2 [Example 320, N-(4-(4-(2-azaspiro[3.3]heptane-2-carbonyl)piperazin-1-yl)phenyl)-4-((8-methyl-2,3-dihydro-1H-pyrido[2,3-b][1,4]oxazin-7-yl)amino)-2-oxo-1,2-dihydropyridine-3-carboxamide]
21 | 10 to 100 | Cc1c(Nc2cc[nH]c(=O)c2C(=O)Nc2ccc(N3CCN(C(=O)N4CC5(COC5)C4)CC3)cc2)cnc2c1NCCO2 [Example 321, N-(4-(4-(2-oxa-6-azaspiro[3.3]heptane-6-carbonyl)piperazin-1-yl)phenyl)-4-((8-methyl-2,3-dihydro-1H-pyrido[2,3-b][1,4]oxazin-7-yl)amino)-2-oxo-1,2-dihydropyridine-3-carboxamide]
22 | ≤ 10 | Cc1c(Nc2cc[nH]c(=O)c2C(=O)Nc2ccc(N3CCN(C(=O)N4CCCC4)CC3)cc2)cnc2c1NCCO2 [Example 324, 4-((8-methyl-2,3-dihydro-1H-pyrido[2,3-b][1,4]oxazin-7-yl)amino)-2-oxo-N-(4-(4-(pyrrolidine-1-carbonyl)piperazin-1-yl)phenyl)-1,2-dihydropyridine-3-carboxamide]
23 | ≤ 10 | Cc1c(Nc2cc[nH]c(=O)c2C(=O)Nc2ccc(N3CCN(C(=O)N4CCC4)CC3)cc2)cnc2c1NCCO2 [Example 325, N-(4-(4-(azetidine-1-carbonyl)piperazin-1-yl)phenyl)-4-((8-methyl-2,3-dihydro-1H-pyrido[2,3-b][1,4]oxazin-7-yl)amino)-2-oxo-1,2-dihydropyridine-3-carboxamide]
24 | ≤ 10 | Cc1c(Nc2cc[nH]c(=O)c2C(=O)Nc2ccc(N3CCN(C(=O)C4CC4)CC3)cc2)cnc2c1NCCO2 [Example 332, N-(4-(4-(cyclopropanecarbonyl)piperazin-1-yl)phenyl)-4-((8-methyl-2,3-dihydro-1H-pyrido[2,3-b][1,4]oxazin-7-yl)amino)-2-oxo-1,2-dihydropyridine-3-carboxamide]
